Test results taken from patent publication US20040126421A1, “Liposomal system and method of using same” (priority 2002, published 2004).

System: CD8+ T cells recognizing the ova peptide (SIINFEKL)
Experiment: IFN-g ELISPOT of lymph node CD8+ T cells after vaccination
Format: in vivo, C57BL/6 mice
Protocol: In order to test the potency of the Ubiquisome vaccine, the liposomes of example 1 were used as a vaccine. For vaccination, mice received a single administration of […] of liposomes containing 2.5 mg POPE and approximately […] peptide antigen. The vaccine was injected bilaterally in mouse tibealis anterior muscle ([…] per muscle).
For ELISPOT analysis, mice were sacrificed 5 days following vaccination and inguinal and popliteal lymph nodes were harvested. CD8+ T cells from lymph nodes were isolated using the MACS magnetic cell separation technique. 1×10^5 CD8+ T cells were plated per well in 96 well IP plates. Ova (SIINFEKL, Seq ID No. 3) or irrelevant peptide-pulsed EL4 lymphoma cells were irradiated and plated over CD8+ T cells at density of 10×10^4 cells/well. Following 20 h incubation and assay development, IFN-g secreting cells were visualized as brown spots on the IP membrane.

monophosphoryl Lipid A [MPL]
CD8+ T cell response with increasing amounts of MPL in the bilayer: proportionally stronger CD8+ T cell responses
